From ChEMBL document CHEMBL1201862, “PubChem BioAssay data set” (2004)
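Dose response: 5 concentrations. Exposure: 48 h. Format: 96-well plates. Endpoint: linear interpolation; highest concentration if not reached. GI50 = concentration required for 50% inhibition of growth.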 Activity calls are given as the source filed them. Cut-off read from the data, not from the text of the source: active = GI50 up to about 1.1 µM and inactive = higher.

Key:
Assay in all cases: NCI anticancer screen, dose series, 48 h
NCI/ADR-RES = system: NCI/ADR-RES
SK-MEL-2 = system: SK-MEL-2
SNB-75 = system: SNB-75
CAKI-1 = system: CAKI-1
SK-MEL-5 = system: SK-MEL-5
SK-OV-3 = system: SK-OV-3
EKVX = system: EKVX
RPMI-8226 = system: RPMI-8226
HL-60 = system: HL-60
UACC-62 = system: UACC-62
COLO 205 = system: COLO 205
NCI-H23 = system: NCI-H23
SN12C = system: SN12C
786-0 = system: 786-0
MCF7 = system: MCF7
BT-549 = system: BT-549
ACHN = system: ACHN
UO-31 = system: UO-31
NCI-H522 = system: NCI-H522

SMILES | GI50 (NCI/ADR-RES) | GI50 (SK-MEL-2) | GI50 (SNB-75) | GI50 (CAKI-1) | GI50 (SK-MEL-5) | GI50 (SK-OV-3) | GI50 (EKVX) | GI50 (RPMI-8226) | GI50 (HL-60) | GI50 (UACC-62) | GI50 (COLO 205) | GI50 (NCI-H23) | GI50 (SN12C) | GI50 (786-0) | GI50 (MCF7) | GI50 (BT-549) | GI50 (ACHN) | GI50 (UO-31) | GI50 (NCI-H522)
[O-][S+](Cc1ccccc1)c1ccccc1Cn1cccc1 (centres undefined) | > 100 µM (inactive) | > 100 µM (inactive) | 74.3 µM (inactive) | > 100 µM (inactive) | > 100 µM (inactive) | > 100 µM (inactive) | > 100 µM (inactive) | > 100 µM (inactive) | > 100 µM (inactive) | 71.6 µM (inactive) | > 100 µM (inactive) | > 100 µM (inactive) | > 100 µM (inactive) | > 100 µM (inactive) | > 100 µM (inactive) | 61.1 µM (inactive) | > 100 µM (inactive) | > 100 µM (inactive) | –
COc1ccc2c(c1)CC1(O)COc3cc(OC)ccc3C1O2 (centres undefined) | 68.9 µM (inactive) | > 100 µM (inactive) | – | > 100 µM (inactive) | 38.8 µM (inactive) | > 100 µM (inactive) | > 100 µM (inactive) | 59 µM (inactive) | – | > 100 µM (inactive) | > 100 µM (inactive) | > 100 µM (inactive) | > 100 µM (inactive) | > 100 µM (inactive) | > 100 µM (inactive) | > 100 µM (inactive) | > 100 µM (inactive) | > 100 µM (inactive) | > 100 µM (inactive)
COc1cc(C(CN)N(C)C)cc(OC)c1OC (centres undefined) | > 100 µM (inactive) | – | – | > 100 µM (inactive) | > 100 µM (inactive) | > 100 µM (inactive) | > 100 µM (inactive) | – | > 100 µM (inactive) | > 100 µM (inactive) | 77.8 µM (inactive) | > 100 µM (inactive) | 49.2 µM (inactive) | > 100 µM (inactive) | > 100 µM (inactive) | > 100 µM (inactive) | > 100 µM (inactive) | > 100 µM (inactive) | > 100 µM (inactive)
C/C(=N\c1ccc(Cl)cc1)c1ccncc1 | > 100 µM (inactive) | > 100 µM (inactive) | > 100 µM (inactive) | > 100 µM (inactive) | 2.13 µM (inactive) | – | 27.9 µM (inactive) | 7.08 µM (inactive) | – | – | 5.64 µM (inactive) | 67.8 µM (inactive) | > 100 µM (inactive) | > 100 µM (inactive) | 32.4 µM (inactive) | > 100 µM (inactive) | 0.233 µM (active) | 4.04 µM (inactive) | > 100 µM (inactive)
Nc1nc2c(c(=O)[nH]1)C(c1ccccc1)CC(=O)N2 (centres undefined) | > 100 µM (inactive) | > 100 µM (inactive) | > 100 µM (inactive) | – | > 100 µM (inactive) | > 100 µM (inactive) | > 100 µM (inactive) | > 100 µM (inactive) | – | > 100 µM (inactive) | > 100 µM (inactive) | > 100 µM (inactive) | > 100 µM (inactive) | > 100 µM (inactive) | > 100 µM (inactive) | > 100 µM (inactive) | > 100 µM (inactive) | > 100 µM (inactive) | –
O=C1N[C@H](C(=O)O)[C@@H](c2ccc(OCc3ccccc3)cc2)O1 | 22.5 µM (inactive) | 26.2 µM (inactive) | 10.8 µM (inactive) | 34.3 µM (inactive) | > 100 µM (inactive) | 44.1 µM (inactive) | 22.4 µM (inactive) | 11.6 µM (inactive) | – | 67.5 µM (inactive) | > 100 µM (inactive) | 40.4 µM (inactive) | 45.1 µM (inactive) | 16.6 µM (inactive) | 37.1 µM (inactive) | 32.1 µM (inactive) | 36.5 µM (inactive) | > 100 µM (inactive) | 37.3 µM (inactive)
OC1c2ccccc2CCC1CN1CCN(CCOC(c2ccc(F)cc2)c2ccc(F)cc2)CC1 (centres undefined) | 11.2 µM (inactive) | 16.6 µM (inactive) | 20.3 µM (inactive) | 25.1 µM (inactive) | 4.79 µM (inactive) | 94.8 µM (inactive) | – | 5.77 µM (inactive) | – | 13.8 µM (inactive) | 1.72 µM (inactive) | 14.5 µM (inactive) | 13.1 µM (inactive) | 11.7 µM (inactive) | 14.5 µM (inactive) | 12.4 µM (inactive) | 21.6 µM (inactive) | – | 15.7 µM (inactive)
Cc1ccc(S(=O)(=O)NC2C(=O)c3ccccc3C(=O)C2n2cnc3ccccc32)cc1 (centres undefined) | 22.1 µM (inactive) | 14.7 µM (inactive) | 30.3 µM (inactive) | 60 µM (inactive) | 13.1 µM (inactive) | 66.5 µM (inactive) | 34.3 µM (inactive) | 32.5 µM (inactive) | 16.6 µM (inactive) | 28.3 µM (inactive) | 20 µM (inactive) | 23.9 µM (inactive) | 32.7 µM (inactive) | 39.5 µM (inactive) | 31.6 µM (inactive) | 28.8 µM (inactive) | 24.3 µM (inactive) | – | –
O=C(O)c1ccccc1C(=O)c1ccc2c(c1)Cc1ccccc1-2 | 99.1 µM (inactive) | > 100 µM (inactive) | > 100 µM (inactive) | > 100 µM (inactive) | > 100 µM (inactive) | > 100 µM (inactive) | 68.5 µM (inactive) | 60.8 µM (inactive) | – | 66.8 µM (inactive) | 57 µM (inactive) | > 100 µM (inactive) | > 100 µM (inactive) | > 100 µM (inactive) | > 100 µM (inactive) | 78.9 µM (inactive) | 56.6 µM (inactive) | > 100 µM (inactive) | 41.9 µM (inactive)
O=c1oc2ccc(Cl)cc2cc1-c1cn2ccccc2n1 | 17.9 µM (inactive) | > 96.6 µM (inactive) | 15.3 µM (inactive) | 15.2 µM (inactive) | > 100 µM (inactive) | 2.14 µM (inactive) | 28.8 µM (inactive) | 80.9 µM (inactive) | – | 13 µM (inactive) | > 100 µM (inactive) | 15.7 µM (inactive) | 7.76 µM (inactive) | 3.24 µM (inactive) | 24.5 µM (inactive) | 34.5 µM (inactive) | 2.64 µM (inactive) | 4.72 µM (inactive) | 36.6 µM (inactive)
CC(=O)Oc1ccc(OC(Oc2ccccc2)c2ccccc2)cc1 (centres undefined) | 50.9 µM (inactive) | – | 10.4 µM (inactive) | 20 µM (inactive) | – | 32.6 µM (inactive) | 41.6 µM (inactive) | – | 12.6 µM (inactive) | 20.7 µM (inactive) | 40.7 µM (inactive) | 17.7 µM (inactive) | 15 µM (inactive) | 23.8 µM (inactive) | 35.4 µM (inactive) | 27 µM (inactive) | 25.2 µM (inactive) | 26.8 µM (inactive) | 42.6 µM (inactive)
CC(C)(C)OC(=O)c1cnc(Cl)cn1 | 50 µM (inactive) | 29.9 µM (inactive) | > 100 µM (inactive) | 3.56 µM (inactive) | 47.3 µM (inactive) | > 100 µM (inactive) | 24.2 µM (inactive) | 23.7 µM (inactive) | – | 31.8 µM (inactive) | 71.3 µM (inactive) | 20.7 µM (inactive) | 31.8 µM (inactive) | > 100 µM (inactive) | 23.5 µM (inactive) | 48.5 µM (inactive) | 35.6 µM (inactive) | 6.19 µM (inactive) | 1.05 µM (active)
